{
  "source": "patent US20110009489A1",
  "about": "“COSMETIC COMPOSITION COMPRISING VITAMIN U AS ACTIVE INGREDIENT FOR HEALING WOUNDS AND REDUCING WRINKLES” (CUSKIN CO., LTD., priority 2008, published 2011)",
  "key": {"collagenase mRNA": {"system": "collagenase mRNA", "conditions": "mouse, in vivo", "experimental": "(§1) An experiment on Inhibitory effect on collagenase of the cosmetic composition containing vitamin U of the present invention was carried out. The experiment was carried for 4 weeks with the Atrichia mice divided into two groups, each of which is composed of 10 mice. Vitamin U containing cosmetic formula, prepared in cream with 10% vitamin U, was applied onto the back skin of the experimental group mouse every day. In the meantime, vitamin U-free ordinary formula was applied on the control. 4 weeks later, back skin was picked from both groups. RNA was extracted from the skin tissues, followed by real-time PCR to investigate the transcription level of collagenase mRNA (FIG. 8)."}, "collagen": {"system": "collagen", "conditions": "mouse, in vivo", "experimental": "as §1"}, "human dermal fibroblasts": {"system": "human dermal fibroblasts", "conditions": "vitamin U 10^−2 or 10^−3 M, DMEM with 1% FBS, scratch; vs control not treated with vitamin", "procedure": "The medium used for the wound healing experiment was obtained from DMEM with 1% FBS. Such an amount of vitamin U was added that the final vitamin U concentration should be 10^−2 or 10^−3 M. In the meantime, vitamin-free medium containing 1% FBS was used for the control.\nHuman fibroblasts were cultured in a 6-well culture dish until the cells were grown at least 90% confluent. The cells were scratched out by using 2 mm micro tip. The fallen-off cells were washed out with PBS, followed by culture in another experimental medium. Then, it was observed by photograph how many cells migrate into the room between scratches."}, "[1]": {"system": "human epidermal keratinocytes", "conditions": "vitamin U 10^−2, 10^−3, 10^−4 M, 1/10 growth factor, scratch; vs control not treated with vitamin U", "procedure": "The following experiment was performed to investigate if vitamin U could increase the movement of human epidermal keratinocytes (hereinafter hEK) in vitro. The basic culture medium was obtained fromDefined Keratinocyte-SFM (Gibco, USA) with Defined Keratinocyte-SFM Growth supplement and growth factors. For the experiment, such an amount of 1/10 growth factor and vitamin U were added that the final concentrations of vitamin U should be 10^−2, 10^−3, and 10^−4 M. In the meantime, vitamin-free medium containing 1/10 growth factor was used for the control.\nHuman keratinocytes were cultured in a 6-well culture dish until the cells were grown at least 90% confluent. The cells were scratched out by using 2 mm micro tip. The fallen-off cells were washed out with PBS, followed by culture in another experimental medium."}, "gastric mucosa [2]": {"system": "gastric mucosa", "conditions": "rabbit, vitamin U administered; cited from earlier work"}, "gastric mucosa [3]": {"system": "gastric mucosa", "conditions": "pig, vitamin U administered; cited from earlier work"}},
  "data": [
    {"smiles": "CS.CSCCC(N)C(=O)O.Cl", "note": "(racemic) [vitamin U, DL-methionine methylsulfonium chloride]", "values": [
      {"measurement": "collagenase mRNA transcription", "setting": "collagenase mRNA", "result": "significant inhibition"},
      {"measurement": "collagen (Western blotting)", "setting": "collagen", "result": "increase of collagen"},
      {"measurement": "migration of fibroblasts", "setting": "human dermal fibroblasts", "result": "much more increased"},
      {"measurement": "migration of keratinocytes", "setting": "[1]", "result": "much more increased"},
      {"measurement": "mucin secretion of gastric mucosa", "setting": "gastric mucosa [2]", "result": "increased"},
      {"measurement": "ulcer of gastric mucosa", "setting": "gastric mucosa [3]", "result": "suppressed"}
    ]}
  ]
}
